Source: patent US10881679B2, “Application of a phillyrin/phillygeninin composition in preparing a medicine or health care product for alleviating or/and treating viral diseases, and medicine or health care product for treating viral diseases” (priority 2014, dated 2021)
Read-outs that look alike come from different tables or passages of the source. Marks after values point to notes of the source that are not given here.

Legend:
influenza virus [1] = assay: Impact on virus-induced cytopathic effect in Vero cells (MTT): influenza virus; format: cell-based
parainfluenza virus [2] = assay: Impact on virus-induced cytopathic effect in Vero cells (MTT): parainfluenza virus; format: cell-based; details: parainfluenza virus 100TCID50, Vero, 72 h; drug g/L as Table 1-2
[3] = tested on: Coxsackievirus A16 (CoxA16); assay: Impact on virus-induced cytopathic effect in Vero cells (MTT): CoxA16; format: cell-based; details: CoxA16 100TCID50, Vero, 72 h; drug g/L as Table 1-2
[4] = tested on: respiratory syncytial virus (RSV); assay: Impact on virus-induced cytopathic effect in Vero cells (MTT): RSV; format: cell-based; details: RSV 100TCID50, Vero, 72 h; drug g/L as Table 1-2
[5] = tested on: Herpes zoster simplex viruses type I (HSV-I); assay: Impact on virus-induced cytopathic effect in Vero cells (MTT): HSV-I; format: cell-based; details: HSV-I 100TCID50, Vero, 72 h; drug g/L as Table 1-2
adenovirus (ADV) = assay: Impact on virus-induced cytopathic effect in Vero cells (MTT): ADV; format: cell-based; details: ADV 100TCID50, Vero, 72 h; drug g/L as Table 1-2
enterovirus EV71 = assay: Impact on virus-induced cytopathic effect in Vero cells (MTT): EV71; format: cell-based; details: EV71 100TCID50, Vero, 72 h; drug g/L as Table 1-2
influenza virus [6] = format: in vivo, Kunming mice; details: 13.0 mg/kg/d i.g. 5 days
parainfluenza virus [7] = format: in vivo, Kunming mice; details: 13.0 mg/kg/d i.g. 5 days
parainfluenza virus [8] = format: in vivo, Kunming mice; details: 13.0 mg/kg/d i.g. 5 days; remark: listed apart in the source
[9] = tested on: sweat secretion of rat paws; assay: Sweat secretion of rat paws (coloring method); format: in vivo, Wistar rats; details: dose not given
Description: The test is based on a mechanism that distribution of sweat glands is present in footpads of rat paws, the amount of sweat secretion and variation thereof can be observed by using a mechanism that a purple color can be produced by contacting iodine and starch when encountered with sweat.
500 Wistar rats with equal male and female number were used, weighing of 120˜150 g. These rats were randomly divided into 50 groups by weight and gender, i.e., namely 5 groups for the control groups (0.5% methyl cellulose), 5 groups for phillyrin groups, 5 groups for phillygeninin groups, 5 groups for the low, medium and high dose groups (2.5, 5, 10 mg/kg, respectively) of phillyrin/phillygeninin compositions A and B respactively, and 5 groups for the positive drug pilocarpine groups (35 mg/kg). Each group has 10 rats, 10 groups of rates are used for each test, which has 5 time periods (1, 5, 10, 15 and 20 min). The rats were placed into a self-made rat fixation bag, and both hind limbs of the rats were exposed. Dirt on the right paws was gently cleaned away using cotton swabs containing anhydrous alcohol. Pilocarpine solution was administered by subcutaneous injection, the remaining groups were subjected to intragastric administration. At 1 h (30 min for the pilocarpine group) after administration, pre-existing sweat and sweat generated due to struggle on the right paw of each rat in each group was gently wiped away with dry cotton swabs, then the paws were coated with solution A (dissolving 2 g iodine in 100 ml anhydrous alcohol) of Hetian-gaoyuanshi's reagent. After complete dryness, the paws were thinly coated with solution B (uniform mixture of 50 g soluble starch and 100 ml castor oil) of Hetian-gaoyuanshi's reagent. The color and number of dark purple coloring spots (i.e. sweat spots) were carefully observed at 1, 5, 10, 15 and 20 min after the coating of the solution B respectively with magnifying glass. After the test was completed, statistical treatment was performed according to the rank sum test with two-sample comparison, thereby comparing the differences among the various groups.

[10] = tested on: rabbit fever induced by typhoid and paratyphoid vaccine; assay: Rabbit fever induced by typhoid and paratyphoid vaccine; format: in vivo, Japanese big-ear white rabbits; details: 5.2 mg/kg i.g.
Procedure: Male Japanese big-ear white rabbits with a weight 1.5˜2.0 kg were used. Before the test, WSC-411P portable digital thermometer was used to measure the normal rectal temperature twice (with certain interval for each time), and the average value was taken as the normal body temperature of rabbits. […] Each group has 6 rabbits, and the test was repeated 3 times for each group. Rabbits were fixed into a fixator. The blank control group was intravenously injected with normal saline of 1 ml/kg via the ear margin; The model control group and each drug group were intravenously injected with typhoid and paratyphoid vaccines of 0.8 ml/kg via the ear margin. After the body temperatures of the rabbits increased by 1° C. or more (requiring about 1˜1.5 h, and this test was limited to 1 h), the blank control group and the model group were administered intragastrically with 0.5% carboxymethycellulose of 1 ml/kg, and the drug groups were administered intragastrically with phillyrin/phillygeninin compositions and paracetamol respectively. The rectal temperature was measured after administration for 30, 60, 90, 120, 180 and 240 min to observe the changes in the body temperature, and difference between the groups was compared by inter-group t test processing through antipyretic percentage.

[11] = 10 min after coating solution B
[12] = 15 min after coating solution B
[13] = 20 min after coating solution B

COc1cc([C@H]2OC[C@H]3[C@@H]2CO[C@H]3c2ccc(OC)c(OC)c2)ccc1O [Phillygeninin, phillygeninin]
antiviral effective rate (ER %) (influenza virus [1]): 75.35** %
antiviral effective rate (ER %) (parainfluenza virus [2]): 80.72** %
antiviral effective rate (ER %) [3]: 50.04%
antiviral effective rate (ER %) [4]: 80.88** %
antiviral effective rate (ER %) [5]: 84.30** %
antiviral effective rate (ER %) (adenovirus (ADV)): 50.61%
antiviral effective rate (ER %) (enterovirus EV71): 75.86** %
Lung index (influenza virus [6]): 1.302 ± 0.046
Lung index inhibition rate (influenza virus [6]): 12.51
Lung index (parainfluenza virus [7]): 1.357 ± 0.050
Lung index inhibition rate (parainfluenza virus [7]): 14.69
Hemagglutination titer (InX) (parainfluenza virus [8]): 23.79
Inhibition rate (%) of hemagglutination titer (parainfluenza virus [8]): 28.15%
Animal number of sweat spots of level + ([9]; 1 min after coating solution B): 1 rats
Animal number of sweat spots of level ++ ([9]; 1 min after coating solution B): 3 rats
Animal number of sweat spots of level +++ ([9]; 1 min after coating solution B): 3 rats
Animal number of sweat spots of level ++++ ([9]; 1 min after coating solution B): 3 rats
Animal number of sweat spots of level − ([9]; 1 min after coating solution B): 0 rats
Animal number of sweat spots of level + ([9]; 5 min after coating solution B): 1 rats
Animal number of sweat spots of level ++ ([9]; 5 min after coating solution B): 3 rats
Animal number of sweat spots of level +++ ([9]; 5 min after coating solution B): 2 rats
Animal number of sweat spots of level ++++ ([9]; 5 min after coating solution B): 4 rats
Animal number of sweat spots of level − ([9]; 5 min after coating solution B): 0 rats
Animal number of sweat spots of level + [9, 11]: 1 rats
Animal number of sweat spots of level ++ [9, 11]: 3 rats
Animal number of sweat spots of level +++ [9, 11]: 1 rats
Animal number of sweat spots of level ++++ [9, 11]: 5 rats
Animal number of sweat spots of level − [9, 11]: 0 rats
Animal number of sweat spots of level + [9, 12]: 1 rats
Animal number of sweat spots of level ++ [9, 12]: 1 rats
Animal number of sweat spots of level +++ [9, 12]: 3 rats
Animal number of sweat spots of level ++++ [9, 12]: 5 rats
Animal number of sweat spots of level − [9, 12]: 0 rats
Animal number of sweat spots of level + [9, 13]: 0 rats
Animal number of sweat spots of level ++ [9, 13]: 1 rats
Animal number of sweat spots of level +++ [9, 13]: 4 rats
Animal number of sweat spots of level ++++ [9, 13]: 5 rats
Animal number of sweat spots of level − [9, 13]: 0 rats
Body temperature ([10]; 30 min after administration): 41.06 ± 0.26 °C
antipyretic percentage (%) ([10]; 30 min after administration): −0.10 ± 0.11%
Body temperature ([10]; 60 min after administration): 40.86 ± 0.21 °C
antipyretic percentage (%) ([10]; 60 min after administration): −0.49 ± 0.10%
Body temperature ([10]; 90 min after administration): 40.74 ± 0.22 °C
antipyretic percentage (%) ([10]; 90 min after administration): −0.77 ± 0.22%
Body temperature ([10]; 120 min after administration): 40.65 ± 0.27 °C
antipyretic percentage (%) ([10]; 120 min after administration): −1.00 ± 0.18 %
Body temperature ([10]; 180 min after administration): 40.49 ± 0.23 °C
antipyretic percentage (%) ([10]; 180 min after administration): −1.39 ± 0.17 %
Body temperature ([10]; 240 min after administration): 40.30 ± 0.25 °C
antipyretic percentage (%) ([10]; 240 min after administration): −1.85 ± 0.15 %

COc1ccc([C@H]2OCC3C2CO[C@H]3c2ccc(O[C@@H]3OC(CO)[C@@H](O)[C@H](O)C3O)c(OC)c2)cc1OC (stereo partly shown) [phillyrin]
antiviral effective rate (ER %) (influenza virus [1]; influenza virus 100TCID50, Vero, 72 h, drug g/L (Table 1-2): phillyrin 0.01, Phillygeninin 0.02, compositions A, B 0.01, Ribavirin 0.70, oseltamivir phosphate 0.30): 75.38** %
antiviral effective rate (ER %) (parainfluenza virus [2]): 84.96** %
antiviral effective rate (ER %) [3]: 75.08** %
antiviral effective rate (ER %) [4]: 80.40** %
antiviral effective rate (ER %) [5]: 85.00** %
antiviral effective rate (ER %) (adenovirus (ADV)): 75.14** %
antiviral effective rate (ER %) (enterovirus EV71): 84.85** %
Lung index (influenza virus [6]): 1.280 ± 0.040
Lung index inhibition rate (influenza virus [6]): 14.00
Lung index (parainfluenza virus [7]): 1.335 ± 0.062
Lung index inhibition rate (parainfluenza virus [7]): 16.10
Hemagglutination titer (InX) (parainfluenza virus [8]): 23.17
Inhibition rate (%) of hemagglutination titer (parainfluenza virus [8]): 30.01%
Animal number of sweat spots of level + ([9]; 1 min after coating solution B): 2 rats
Animal number of sweat spots of level ++ ([9]; 1 min after coating solution B): 2 rats
Animal number of sweat spots of level +++ ([9]; 1 min after coating solution B): 2 rats
Animal number of sweat spots of level ++++ ([9]; 1 min after coating solution B): 4 rats
Animal number of sweat spots of level − ([9]; 1 min after coating solution B): 0 rats
Animal number of sweat spots of level + ([9]; 5 min after coating solution B): 1 rats
Animal number of sweat spots of level ++ ([9]; 5 min after coating solution B): 2 rats
Animal number of sweat spots of level +++ ([9]; 5 min after coating solution B): 2 rats
Animal number of sweat spots of level ++++ ([9]; 5 min after coating solution B): 5 rats
Animal number of sweat spots of level − ([9]; 5 min after coating solution B): 0 rats
Animal number of sweat spots of level + [9, 11]: 1 rats
Animal number of sweat spots of level ++ [9, 11]: 1 rats
Animal number of sweat spots of level +++ [9, 11]: 3 rats
Animal number of sweat spots of level ++++ [9, 11]: 5 rats
Animal number of sweat spots of level − [9, 11]: 0 rats
Animal number of sweat spots of level + [9, 12]: 1 rats
Animal number of sweat spots of level ++ [9, 12]: 2 rats
Animal number of sweat spots of level +++ [9, 12]: 4 rats
Animal number of sweat spots of level ++++ [9, 12]: 5 rats
Animal number of sweat spots of level − [9, 12]: 0 rats
Animal number of sweat spots of level + [9, 13]: 0 rats
Animal number of sweat spots of level ++ [9, 13]: 4 rats
Animal number of sweat spots of level +++ [9, 13]: 0 rats
Animal number of sweat spots of level ++++ [9, 13]: 6 rats
Animal number of sweat spots of level − [9, 13]: 0 rats
Body temperature ([10]; 30 min after administration): 40.83 ± 0.26 °C
antipyretic percentage (%) ([10]; 30 min after administration): −0.37 ± 0.15%
Body temperature ([10]; 60 min after administration): 40.58 ± 0.21 °C
antipyretic percentage (%) ([10]; 60 min after administration): −0.61 ± 0.12%
Body temperature ([10]; 90 min after administration): 40.43 ± 0.22 °C
antipyretic percentage (%) ([10]; 90 min after administration): −0.97 ± 0.27%
Body temperature ([10]; 120 min after administration): 40.37 ± 0.27 °C
antipyretic percentage (%) ([10]; 120 min after administration): −1.13 ± 0.14 %
Body temperature ([10]; 180 min after administration): 40.16 ± 0.23 °C
antipyretic percentage (%) ([10]; 180 min after administration): −1.65 ± 0.12 %
Body temperature ([10]; 240 min after administration): 39.92 ± 0.25 °C
antipyretic percentage (%) ([10]; 240 min after administration): −2.22 ± 0.11 %
